Tests used:
Type in all cases: biochemical
IGFR-1 = target: T1, IGFR-1 (Homo sapiens, UniProt P08069); assay: Kinase inhibition assay (33P transfer), IGFR-1; details: Table 2, class symbols A-E
T1 construct: Kinases are expressed as either kinase domains or full length constructs; made in house

Itk = target: T2, Itk (Homo sapiens, UniProt Q08881); assay: Kinase inhibition assay (33P transfer), Itk; details: Table 3, class symbols; read-out: Itk-1
T2 construct: Kinases are expressed as either kinase domains or full length constructs; made in house
T2 sequence (Q08881 1-620): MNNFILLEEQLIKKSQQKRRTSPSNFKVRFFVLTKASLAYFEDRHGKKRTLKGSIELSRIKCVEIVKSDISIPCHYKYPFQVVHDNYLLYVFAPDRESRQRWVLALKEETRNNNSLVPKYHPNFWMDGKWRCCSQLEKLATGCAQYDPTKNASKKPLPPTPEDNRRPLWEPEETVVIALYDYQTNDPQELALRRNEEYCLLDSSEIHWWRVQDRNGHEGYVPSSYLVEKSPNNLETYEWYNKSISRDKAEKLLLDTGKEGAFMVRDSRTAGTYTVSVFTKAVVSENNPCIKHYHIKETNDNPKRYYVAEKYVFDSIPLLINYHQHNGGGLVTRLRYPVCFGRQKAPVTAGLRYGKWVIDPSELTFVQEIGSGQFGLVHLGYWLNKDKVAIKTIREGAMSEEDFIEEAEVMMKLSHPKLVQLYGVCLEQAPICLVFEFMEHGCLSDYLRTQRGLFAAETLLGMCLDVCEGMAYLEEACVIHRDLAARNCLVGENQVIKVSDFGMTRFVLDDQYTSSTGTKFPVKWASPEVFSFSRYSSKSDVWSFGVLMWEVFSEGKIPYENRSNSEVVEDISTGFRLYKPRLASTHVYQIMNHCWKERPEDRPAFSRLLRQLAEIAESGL
Method in brief: (§1)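 Read-out: scintillation counts of 33P moved from ATP onto synthetic peptide polymer coated on the well surface, after washing with 0.5% phosphoric acid. Enzymes were tagged (GST or polyHistidine) and came from bacterial or insect-cell expression. IC50 marks 50% loss of incorporated label.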

ErbB2 = target: T3, ErbB2 (Homo sapiens, UniProt P04626); assay: Kinase inhibition assay (33P transfer), ErbB2; details: read-out: ErbB2-2
T3 construct: Kinases are expressed as either kinase domains or full length constructs; made in house
Method in brief: as §1

Kdr = target: T4, Kdr (Homo sapiens, UniProt P35968); assay: Kinase inhibition assay (33P transfer), Kdr; details: Table 3, class symbols; read-out: KDR-1
T4 construct: Kinases are expressed as either kinase domains or full length constructs; made in house
Method in brief: (§2)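 Each kinase, expressed as a GST- or polyHis-tagged domain or full-length protein, phosphorylated plate-attached poly(Glu,Tyr) 4:1 or poly(Arg,Ser) 3:1 using 33P-ATP. Bound radioactivity was measured by scintillation after a 0.5% phosphoric acid wash.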

AKT = target: T5, AKT (Homo sapiens, UniProt Q9Y243); assay: Kinase inhibition assay (33P transfer), AKT; details: Table 2, class symbols A-E; read-out: AKT3-1
T5 construct: Kinases are expressed as either kinase domains or full length constructs; made in house
Method in brief: as §2

Zap-70 = target: T6, Zap-70 (Homo sapiens, UniProt P43403); assay: Kinase inhibition assay (33P transfer), Zap-70; details: Table 3, class symbols; read-out: Zap-1
T6 construct: Kinases are expressed as either kinase domains or full length constructs; made in house
T6 sequence (P43403 1-619): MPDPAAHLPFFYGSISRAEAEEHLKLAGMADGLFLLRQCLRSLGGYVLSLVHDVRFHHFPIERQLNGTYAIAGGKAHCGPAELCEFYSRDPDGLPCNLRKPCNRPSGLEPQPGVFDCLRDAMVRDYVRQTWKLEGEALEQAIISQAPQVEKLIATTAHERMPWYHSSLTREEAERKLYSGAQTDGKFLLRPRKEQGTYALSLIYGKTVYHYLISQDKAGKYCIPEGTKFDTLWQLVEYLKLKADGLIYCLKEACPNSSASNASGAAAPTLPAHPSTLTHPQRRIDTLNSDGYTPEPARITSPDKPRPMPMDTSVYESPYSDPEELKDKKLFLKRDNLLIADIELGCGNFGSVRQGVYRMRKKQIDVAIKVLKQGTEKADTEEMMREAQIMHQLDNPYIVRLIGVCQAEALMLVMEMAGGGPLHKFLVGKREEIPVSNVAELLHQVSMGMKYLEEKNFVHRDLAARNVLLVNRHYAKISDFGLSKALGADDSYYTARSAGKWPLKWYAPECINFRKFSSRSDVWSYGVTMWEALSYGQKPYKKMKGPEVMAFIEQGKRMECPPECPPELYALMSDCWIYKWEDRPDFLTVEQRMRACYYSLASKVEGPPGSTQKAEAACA
Method in brief: as §2

Lck = target: T7, Lck (Homo sapiens, UniProt P06239); assay: Kinase inhibition assay (33P transfer), Lck; details: Table 3, class symbols; read-out: Lck-1
T7 construct: Kinases are expressed as either kinase domains or full length constructs; made in house
Method in brief: as §2

c-Met = target: T8, c-Met (Homo sapiens, UniProt P08581); assay: Kinase inhibition assay (33P transfer), c-Met; details: Table 2, class symbols A-E; read-out: Met-1
T8 construct: Kinases are expressed as either kinase domains or full length constructs; made in house
T8 sequence (P08581 25-1390): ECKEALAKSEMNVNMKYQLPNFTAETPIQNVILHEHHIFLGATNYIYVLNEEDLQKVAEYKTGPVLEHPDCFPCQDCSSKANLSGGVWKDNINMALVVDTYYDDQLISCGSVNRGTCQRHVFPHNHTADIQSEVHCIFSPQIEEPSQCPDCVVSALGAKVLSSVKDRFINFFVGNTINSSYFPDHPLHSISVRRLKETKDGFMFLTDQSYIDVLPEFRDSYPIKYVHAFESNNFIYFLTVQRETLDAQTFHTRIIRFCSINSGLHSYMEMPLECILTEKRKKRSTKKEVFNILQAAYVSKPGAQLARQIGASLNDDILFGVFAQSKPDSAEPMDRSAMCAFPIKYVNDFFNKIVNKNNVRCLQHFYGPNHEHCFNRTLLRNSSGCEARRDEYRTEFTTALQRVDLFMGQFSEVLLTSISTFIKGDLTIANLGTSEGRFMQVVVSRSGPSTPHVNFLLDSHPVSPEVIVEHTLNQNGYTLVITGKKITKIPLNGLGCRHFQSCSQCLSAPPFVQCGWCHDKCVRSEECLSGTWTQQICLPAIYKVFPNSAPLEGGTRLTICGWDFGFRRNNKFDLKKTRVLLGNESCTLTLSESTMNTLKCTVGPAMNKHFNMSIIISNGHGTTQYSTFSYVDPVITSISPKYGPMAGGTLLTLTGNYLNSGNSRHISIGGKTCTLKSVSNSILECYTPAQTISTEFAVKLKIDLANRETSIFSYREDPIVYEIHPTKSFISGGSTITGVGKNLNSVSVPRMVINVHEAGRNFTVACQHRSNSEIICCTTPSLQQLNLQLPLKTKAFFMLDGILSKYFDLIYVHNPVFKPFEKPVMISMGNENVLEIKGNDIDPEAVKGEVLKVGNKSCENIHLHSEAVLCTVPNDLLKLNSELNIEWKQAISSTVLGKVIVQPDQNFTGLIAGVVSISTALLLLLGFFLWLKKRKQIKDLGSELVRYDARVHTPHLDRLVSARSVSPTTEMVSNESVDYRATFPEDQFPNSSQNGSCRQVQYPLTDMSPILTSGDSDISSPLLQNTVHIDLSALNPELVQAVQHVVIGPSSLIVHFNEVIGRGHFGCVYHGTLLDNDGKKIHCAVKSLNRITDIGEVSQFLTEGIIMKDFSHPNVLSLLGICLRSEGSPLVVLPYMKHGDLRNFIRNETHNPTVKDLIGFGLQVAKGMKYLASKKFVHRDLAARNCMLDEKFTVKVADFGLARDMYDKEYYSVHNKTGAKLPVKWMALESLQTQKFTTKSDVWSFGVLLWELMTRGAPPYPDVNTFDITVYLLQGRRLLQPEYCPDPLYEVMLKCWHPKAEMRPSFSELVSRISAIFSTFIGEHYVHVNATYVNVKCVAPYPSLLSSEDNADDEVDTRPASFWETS
Method in brief: as §1

EGFR = target: T9, EGFR (Homo sapiens, UniProt P00533); assay: Kinase inhibition assay (33P transfer), EGFR; details: Table 2, class symbols A-E; read-out: EGFR-1
T9 construct: Kinases are expressed as either kinase domains or full length constructs; made in house
T9 sequence (P00533 25-1210, species assumed): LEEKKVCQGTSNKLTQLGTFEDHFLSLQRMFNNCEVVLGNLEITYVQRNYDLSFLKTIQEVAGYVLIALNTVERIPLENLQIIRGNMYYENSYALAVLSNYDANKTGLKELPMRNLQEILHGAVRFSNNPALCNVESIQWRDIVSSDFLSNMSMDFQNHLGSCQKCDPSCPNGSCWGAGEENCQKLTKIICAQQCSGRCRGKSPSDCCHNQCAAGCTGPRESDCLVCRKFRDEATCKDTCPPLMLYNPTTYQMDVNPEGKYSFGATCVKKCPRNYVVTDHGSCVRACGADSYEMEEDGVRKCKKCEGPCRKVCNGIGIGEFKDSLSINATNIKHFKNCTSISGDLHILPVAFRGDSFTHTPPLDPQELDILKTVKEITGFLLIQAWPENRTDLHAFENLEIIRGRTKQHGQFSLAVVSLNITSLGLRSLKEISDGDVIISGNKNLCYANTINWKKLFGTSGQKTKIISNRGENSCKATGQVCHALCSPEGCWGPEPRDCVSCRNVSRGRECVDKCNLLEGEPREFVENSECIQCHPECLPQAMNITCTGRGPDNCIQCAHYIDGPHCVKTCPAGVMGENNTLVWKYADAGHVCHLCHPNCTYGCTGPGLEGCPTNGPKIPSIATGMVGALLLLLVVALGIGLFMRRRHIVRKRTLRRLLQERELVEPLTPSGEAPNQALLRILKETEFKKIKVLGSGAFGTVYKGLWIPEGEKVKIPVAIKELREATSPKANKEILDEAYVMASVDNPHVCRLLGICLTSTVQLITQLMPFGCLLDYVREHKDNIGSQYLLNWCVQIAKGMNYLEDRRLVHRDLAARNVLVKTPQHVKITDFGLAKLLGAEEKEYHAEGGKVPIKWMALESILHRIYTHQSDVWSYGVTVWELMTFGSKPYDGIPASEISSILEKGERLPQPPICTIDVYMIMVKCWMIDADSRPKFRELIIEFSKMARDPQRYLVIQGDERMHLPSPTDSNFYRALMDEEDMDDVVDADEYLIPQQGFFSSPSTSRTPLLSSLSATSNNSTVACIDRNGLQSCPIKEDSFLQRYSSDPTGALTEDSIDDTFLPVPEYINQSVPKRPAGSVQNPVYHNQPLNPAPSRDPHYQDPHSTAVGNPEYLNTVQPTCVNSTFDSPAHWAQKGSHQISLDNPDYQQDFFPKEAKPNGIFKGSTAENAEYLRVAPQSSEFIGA
Method in brief: as §1

PDGFRB = target: T10, PDGFRB (Homo sapiens, UniProt P09619); assay: Kinase inhibition assay (33P transfer), PDGFRB; details: read-out: PDGFRB-1
T10 construct: Kinases are expressed as either kinase domains or full length constructs; made in house
T10 sequence (P09619 33-1106, species assumed): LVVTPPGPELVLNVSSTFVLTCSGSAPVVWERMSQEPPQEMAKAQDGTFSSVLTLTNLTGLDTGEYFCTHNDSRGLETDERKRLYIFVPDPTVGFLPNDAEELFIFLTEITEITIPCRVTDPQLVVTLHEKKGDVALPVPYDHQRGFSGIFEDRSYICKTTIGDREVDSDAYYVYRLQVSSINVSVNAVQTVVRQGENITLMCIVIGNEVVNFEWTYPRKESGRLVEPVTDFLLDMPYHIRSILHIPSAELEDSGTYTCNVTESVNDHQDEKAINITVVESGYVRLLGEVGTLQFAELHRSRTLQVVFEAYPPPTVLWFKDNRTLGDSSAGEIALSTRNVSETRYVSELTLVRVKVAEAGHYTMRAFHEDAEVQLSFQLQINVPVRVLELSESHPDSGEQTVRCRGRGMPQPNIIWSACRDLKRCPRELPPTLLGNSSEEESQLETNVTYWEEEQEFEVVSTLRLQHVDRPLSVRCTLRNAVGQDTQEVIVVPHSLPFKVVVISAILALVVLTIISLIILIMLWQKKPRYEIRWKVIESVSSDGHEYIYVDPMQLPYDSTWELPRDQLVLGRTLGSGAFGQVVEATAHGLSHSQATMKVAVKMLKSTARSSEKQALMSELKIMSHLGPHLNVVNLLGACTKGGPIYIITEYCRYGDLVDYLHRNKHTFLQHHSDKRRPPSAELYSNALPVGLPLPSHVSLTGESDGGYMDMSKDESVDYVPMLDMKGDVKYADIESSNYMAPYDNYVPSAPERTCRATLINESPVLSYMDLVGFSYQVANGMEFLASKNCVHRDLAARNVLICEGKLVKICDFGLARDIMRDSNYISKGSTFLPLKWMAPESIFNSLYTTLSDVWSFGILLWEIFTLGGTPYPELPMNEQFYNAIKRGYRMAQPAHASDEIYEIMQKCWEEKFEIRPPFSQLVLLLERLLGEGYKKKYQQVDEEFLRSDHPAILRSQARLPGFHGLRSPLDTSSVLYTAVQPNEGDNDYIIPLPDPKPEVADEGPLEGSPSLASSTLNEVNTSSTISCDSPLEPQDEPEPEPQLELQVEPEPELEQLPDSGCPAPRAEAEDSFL

T1 sequence (P08069 31-1367): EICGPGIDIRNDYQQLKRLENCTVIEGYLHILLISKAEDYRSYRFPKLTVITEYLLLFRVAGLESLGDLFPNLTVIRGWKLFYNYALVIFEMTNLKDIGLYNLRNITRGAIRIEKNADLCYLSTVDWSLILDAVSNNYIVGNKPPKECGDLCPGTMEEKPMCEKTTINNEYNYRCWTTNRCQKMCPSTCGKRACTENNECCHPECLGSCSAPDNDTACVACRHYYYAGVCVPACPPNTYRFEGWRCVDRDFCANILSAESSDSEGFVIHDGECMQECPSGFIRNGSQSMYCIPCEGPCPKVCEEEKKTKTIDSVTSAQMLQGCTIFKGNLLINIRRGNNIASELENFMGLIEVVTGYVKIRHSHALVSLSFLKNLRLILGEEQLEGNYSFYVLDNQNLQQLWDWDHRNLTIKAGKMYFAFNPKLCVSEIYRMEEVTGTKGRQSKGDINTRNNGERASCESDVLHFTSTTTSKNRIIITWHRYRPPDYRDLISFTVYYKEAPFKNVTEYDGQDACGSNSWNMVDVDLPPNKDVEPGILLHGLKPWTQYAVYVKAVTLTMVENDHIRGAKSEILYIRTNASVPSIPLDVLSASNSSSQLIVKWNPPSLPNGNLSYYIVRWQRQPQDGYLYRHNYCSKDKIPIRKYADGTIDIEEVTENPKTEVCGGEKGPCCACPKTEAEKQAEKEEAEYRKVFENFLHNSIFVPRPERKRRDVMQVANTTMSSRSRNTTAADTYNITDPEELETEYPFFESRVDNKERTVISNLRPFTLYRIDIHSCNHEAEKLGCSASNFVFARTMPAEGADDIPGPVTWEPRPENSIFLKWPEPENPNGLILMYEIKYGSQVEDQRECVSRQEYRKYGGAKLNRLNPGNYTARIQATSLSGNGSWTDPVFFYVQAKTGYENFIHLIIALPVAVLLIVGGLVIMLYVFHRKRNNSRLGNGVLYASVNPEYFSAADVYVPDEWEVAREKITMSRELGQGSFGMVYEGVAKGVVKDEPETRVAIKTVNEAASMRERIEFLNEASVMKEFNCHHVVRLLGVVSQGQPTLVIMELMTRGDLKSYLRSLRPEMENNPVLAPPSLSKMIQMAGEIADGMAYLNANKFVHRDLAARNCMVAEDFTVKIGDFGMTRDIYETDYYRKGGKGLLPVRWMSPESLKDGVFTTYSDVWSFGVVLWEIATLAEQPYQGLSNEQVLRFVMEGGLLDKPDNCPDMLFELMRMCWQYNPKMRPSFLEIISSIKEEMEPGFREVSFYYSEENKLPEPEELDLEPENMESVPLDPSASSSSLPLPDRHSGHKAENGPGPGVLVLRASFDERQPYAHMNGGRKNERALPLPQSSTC

SMILES	IC50 (IGFR-1)	IC50 (Itk)	IC50 (ErbB2)	IC50 (Kdr)	IC50 (AKT)	IC50 (Zap-70)	IC50 (Lck)	IC50 (c-Met)	IC50 (EGFR)	IC50 (PDGFRB)
Nc1nc2ccccc2n1-c1ncnc(Nc2cccc(Cn3ccnn3)c2)n1 [Compound 960]	< 1.04 µM	1.04 to 6.24 µM	6.24 to 9.1 µM	< 1.04 µM	> 11.7 µM	> 11.7 µM	1.04 to 6.24 µM	9.1 to 11.7 µM	6.24 to 9.1 µM	9.1 to 11.7 µM
Brc1cccc(Nc2ncnc(Nc3cccc(Cn4ccnn4)c3)n2)c1 [Compound 961]	0.945 to 5.67 µM	5.67 to 8.27 µM	< 0.945 µM	0.945 to 5.67 µM	> 10.6 µM	> 10.6 µM	5.67 to 8.27 µM	> 10.6 µM	< 0.945 µM	8.27 to 10.6 µM
COc1ccc(Nc2ncnc(Nc3cc(Cl)cc(Cl)c3)n2)cc1OC [Compound 898]	6.12 to 8.92 µM	> 11.5 µM	> 11.5 µM	> 11.5 µM	> 11.5 µM	> 11.5 µM	> 11.5 µM	> 11.5 µM	6.12 to 8.92 µM	8.92 to 11.5 µM
COc1cc(Nc2ncnc(-c3cccnc3NC3CCCCC3)n2)cc(OC)c1OC [Compound 848]	> 10.3 µM	> 10.3 µM	> 10.3 µM	< 0.916 µM	> 10.3 µM	> 10.3 µM	8.02 to 10.3 µM	> 10.3 µM	> 10.3 µM	< 0.916 µM
Clc1cc(Nc2ncnc(Nc3ccc4c(cnn4Cc4ccccc4)c3)n2)cc(Cl)c1Cl [Compound 872]	0.805 to 4.83 µM	0.805 to 4.83 µM	0.805 to 4.83 µM	0.805 to 4.83 µM	0.805 to 4.83 µM	> 9.06 µM	> 9.06 µM	0.805 to 4.83 µM	0.805 to 4.83 µM	0.805 to 4.83 µM
COc1cc(Nc2ncnc(-c3cccnc3Nc3ccc(C(C)=O)cc3)n2)cc(OC)c1OC [Compound 832]	> 9.52 µM	> 9.52 µM	> 9.52 µM	0.847 to 5.08 µM	> 9.52 µM	> 9.52 µM	> 9.52 µM	0.847 to 5.08 µM	> 9.52 µM	> 9.52 µM
COc1cccc(CCNc2ncnc(Nc3ccc4c(cnn4Cc4ccccc4)c3)n2)c1OC [Compound 873]	> 9.34 µM	> 9.34 µM	> 9.34 µM	> 9.34 µM	> 9.34 µM	> 9.34 µM	> 9.34 µM	> 9.34 µM	> 9.34 µM	> 9.34 µM
COc1cc(Nc2ncnc(N3CCCc4ccc(Cl)cc43)n2)cc(OC)c1OC [Compound 645]	> 10.5 µM	> 10.5 µM	< 0.935 µM	> 10.5 µM	> 10.5 µM	> 10.5 µM	> 10.5 µM	> 10.5 µM	< 0.935 µM	> 10.5 µM
COC(=O)c1ccc(-c2cc(Nc3ncnc(NCCc4c[nH]c5ccccc45)n3)[nH]n2)cc1 [Compound 806]	0.88 to 5.28 µM	0.88 to 5.28 µM	0.88 to 5.28 µM	0.88 to 5.28 µM	> 9.9 µM	> 9.9 µM	0.88 to 5.28 µM	0.88 to 5.28 µM	0.88 to 5.28 µM	> 9.9 µM
COC(=O)c1ccc(-c2cc(Nc3ncnc(NCCNC(C)=O)n3)[nH]n2)cc1 [Compound 819]	> 11.4 µM	> 11.4 µM	> 11.4 µM	> 11.4 µM	> 11.4 µM	> 11.4 µM	> 11.4 µM	> 11.4 µM	> 11.4 µM	1.01 to 6.05 µM

Continued, values first:

IC50 (IGFR-1)	IC50 (Itk)	IC50 (ErbB2)	IC50 (Kdr)	IC50 (AKT)	IC50 (Zap-70)	IC50 (Lck)	IC50 (c-Met)	IC50 (EGFR)	IC50 (PDGFRB)	SMILES
1.14 to 6.83 µM	> 12.8 µM	> 12.8 µM	> 12.8 µM	> 12.8 µM	> 12.8 µM	> 12.8 µM	> 12.8 µM	9.96 to 12.8 µM	> 12.8 µM	Fc1ccc(CNc2ncnc(Nc3cc(-c4ccco4)n[nH]3)n2)cc1 [Compound 996]
5.56 to 8.11 µM	8.11 to 10.4 µM	> 10.4 µM	> 10.4 µM	> 10.4 µM	> 10.4 µM	> 10.4 µM	0.927 to 5.56 µM	0.927 to 5.56 µM	0.927 to 5.56 µM	CCOc1ccc(Nc2ncnc(Nc3cc(-c4ccc(C(=O)OC)cc4)n[nH]3)n2)cc1 [Compound 879]
0.951 to 5.71 µM	0.951 to 5.71 µM	0.951 to 5.71 µM	< 0.951 µM	0.951 to 5.71 µM	5.71 to 8.33 µM	> 10.7 µM	0.951 to 5.71 µM	0.951 to 5.71 µM	< 0.951 µM	O=C(O)CNC(=O)c1ccc(Nc2ncnc(Nc3cc(-c4ccco4)[nH]n3)n2)cc1 [Compound 884]
1.29 to 7.73 µM	1.29 to 7.73 µM	1.29 to 7.73 µM	1.29 to 7.73 µM	> 14.5 µM	> 14.5 µM	> 14.5 µM	1.29 to 7.73 µM	1.29 to 7.73 µM	1.29 to 7.73 µM	c1coc(-c2cc(Nc3ncnc(Nc4nc[nH]n4)n3)n[nH]2)c1 [Compound 889]
< 0.871 µM	0.871 to 5.22 µM	0.871 to 5.22 µM	0.871 to 5.22 µM	5.22 to 7.62 µM	0.871 to 5.22 µM	< 0.871 µM	< 0.871 µM	0.871 to 5.22 µM	0.871 to 5.22 µM	COC(=O)c1ccc(-c2cc(Nc3ncnc(Nc4cccc(CCC(=O)O)c4)n3)[nH]n2)cc1 [Compound 992]
< 0.991 µM	0.991 to 5.95 µM	< 0.991 µM	< 0.991 µM	0.991 to 5.95 µM	0.991 to 5.95 µM	5.95 to 8.68 µM	< 0.991 µM	0.991 to 5.95 µM	< 0.991 µM	c1coc(-c2cc(Nc3ncnc(Nc4ccc(-c5csnn5)cc4)n3)n[nH]2)c1 [Compound 891]
7.18 to 10.5 µM	10.5 to 13.5 µM	> 13.5 µM	7.18 to 10.5 µM	> 13.5 µM	> 13.5 µM	> 13.5 µM	> 13.5 µM	1.2 to 7.18 µM	1.2 to 7.18 µM	c1ccc(CNc2ncnc(Nc3cc(-c4ccco4)n[nH]3)n2)nc1 [Compound 995]
0.852 to 5.11 µM	5.11 to 7.46 µM	0.852 to 5.11 µM	5.11 to 7.46 µM	5.11 to 7.46 µM	7.46 to 9.59 µM	5.11 to 7.46 µM	< 0.852 µM	0.852 to 5.11 µM	0.852 to 5.11 µM	COC(=O)c1ccc(-c2cc(Nc3ncnc(Nc4cccc(Cc5nnn[nH]5)c4)n3)[nH]n2)cc1 [Compound 991]
5.89 to 8.59 µM	0.982 to 5.89 µM	5.89 to 8.59 µM	0.982 to 5.89 µM	0.982 to 5.89 µM	8.59 to 11 µM	8.59 to 11 µM	0.982 to 5.89 µM	> 11 µM	0.982 to 5.89 µM	COc1ccc(CCNc2ncnc(Nc3cc(-c4ccco4)[nH]n3)n2)cc1OC [Compound 823]
